Experimental data: patent US20250154546A1, “USE OF 3'-OXYMETHYLENE ALKYL DISULFIDE PROTECTED NUCLEOTIDES FOR ENZYMATIC DNA AND RNA SYNTHESIS” (Miltenyi Biotec B.V. & Co. KG, priority 2022, published 2025)

Assay: Cleave kinetics of 3′-O-capped nucleotide in cleave mix, monitored by UPLC
Type: physicochemical
Conditions: 10 mM Mg2+ in the cleave mix versus none; 20 mM DMPS, pH 9.5
Procedure: A 3′-O-capped nucleotide was treated with a cleave mix DMPS/THPP and the concentration of the 3′-capped nucleotide was monitored by UPLC with a UV detector at a fixed time interval.
In [A]=−kt+In[A]0 and t1/2=In2/k with [A]: reactant concentration; k: reaction rate coefficient
Nucleotide: MeSSdATP, 4.7 mM in 1× TE buffer;
12.8 μL of nucleotide was added to 287 μL of cleave mix in a 1.5 mL of UPLC sample vial. The resulting mixture was analyzed by UPLC right away and every 10 min afterwards automatically for up to 120 min. The area of the starting nucleotide peak was measured at each time point and the value was used directly for the calculation. From the rate of peak area reduction or disappearance of the intermediate the rate constant and the half-life of the intermediate calculated as discussed earlier.

CSSCO[C@H]1C[C@H](n2cnc3c(N)ncnc32)O[C@@H]1COP(=O)(O)OP(=O)(O)OP(=O)(O)O [MeSSdATP, 3′-O—(MeSSCH2)-dATP]
reduction of half-life: ≤ 30%
